Converted amounts (≈) assume the structure as drawn.

Common to all, as to format: functional
In assay [1] the test system is Enterococcus faecalis. Put plainly: Antibacterial activity against Enterococcus faecalis 14-2.
In assay [2] the test system is Staphylococcus epidermidis. Put plainly: Antibacterial activity against methicillin-resistant Staphylococcus epidermidis 14-2.
Assay [3] has as its system Staphylococcus aureus. Put plainly: Antibacterial activity against methicillin-resistant Staphylococcus aureus 14-2.
Assay [4] deals with Staphylococcus aureus. Put plainly: Antibacterial activity against methicillin-sensitive Staphylococcus aureus 14-4.
The subject of assay [5] is Escherichia coli. Put plainly: Antibacterial activity against Escherichia coli 14-1 expressing extended-spectrum beta-lactamase.
In assay [6] the test system is Staphylococcus aureus. The assay is described as follows: Antibacterial activity against methicillin-sensitive Staphylococcus aureus 14-1.
In assay [7] the test system is Enterococcus faecalis. The assay is described as follows: Antibacterial activity against Enterococcus faecalis 14-5.
In assay [8] the test system is Enterococcus faecalis. Put plainly: Antibacterial activity against Enterococcus faecalis 14-1.
Assay [9] has as its system Escherichia coli. The assay is described as follows: Antibacterial activity against Escherichia coli 14-2.
Assay [10] concerns Staphylococcus aureus. Put plainly: Antibacterial activity against methicillin-resistant Staphylococcus aureus 14-4.
The test system of assay [11] is Staphylococcus epidermidis. Put plainly: Antibacterial activity against methicillin-sensitive Staphylococcus epidermidis 14-2.
For assay [12], the system named is Escherichia coli. Put plainly: Antibacterial activity against Escherichia coli 14-1.
Assay [13] deals with Staphylococcus epidermidis. The assay is described as follows: Antibacterial activity against methicillin-resistant Staphylococcus epidermidis 14-1.
The subject of assay [14] is Staphylococcus epidermidis. Put plainly: Antibacterial activity against methicillin-resistant Staphylococcus epidermidis 14-4.
Assay [15] deals with Staphylococcus epidermidis. The assay is described as follows: Antibacterial activity against methicillin-sensitive Staphylococcus epidermidis 14-1.
Assay [16] relates to Staphylococcus epidermidis. Put plainly: Antibacterial activity against methicillin-resistant Staphylococcus epidermidis 14-3.
Assay [17] deals with Staphylococcus aureus. Put plainly: Antibacterial activity against methicillin-resistant Staphylococcus aureus 14-1.
Assay [18] relates to Enterococcus faecalis. The assay is described as follows: Antibacterial activity against Enterococcus faecalis 14-3.
Assay [19] concerns Staphylococcus aureus. Put plainly: Antibacterial activity against methicillin-sensitive Staphylococcus aureus 14-2.
Assay [20] concerns Staphylococcus aureus. Put plainly: Antibacterial activity against methicillin-sensitive Staphylococcus aureus 14-3.
For assay [21], the system named is Staphylococcus aureus. Put plainly: Antibacterial activity against methicillin-resistant Staphylococcus aureus 14-5.
Assay [22] has as its system Escherichia coli. Put plainly: Antibacterial activity against Escherichia coli 14-2 expressing extended-spectrum beta-lactamase.
Assay [23] concerns Staphylococcus epidermidis. The assay is described as follows: Antibacterial activity against methicillin-sensitive Staphylococcus epidermidis 14-3.

On to `CCCC[C@H](CN(O)C=O)C(=O)N1CCC[C@H]1C(=O)Nc1ccc(F)c[n+]1[O-]`, for which the MIC was found to be 2 µg/mL (≈ 5.05 µM) in the assay on Enterococcus faecalis [1]; 0.125 µg/mL (≈ 0.315 µM) in [2]; 1 µg/mL (≈ 2.52 µM) against Staphylococcus aureus [3]; 0.5 µg/mL (≈ 1.26 µM) in the assay on Staphylococcus aureus [4]; 1 µg/mL (≈ 2.52 µM) in the assay with Escherichia coli [5]; 0.5 µg/mL (≈ 1.26 µM) in the assay with Staphylococcus aureus [6]. For the same compound, the MIC against Enterococcus faecalis [7] amounted to 128 µg/mL (≈ 323 µM); in the assay on Enterococcus faecalis [8] it was 2 µg/mL (≈ 5.05 µM); in the assay on Escherichia coli [9] it was 64 µg/mL (≈ 161 µM); against Staphylococcus aureus [10], 1 µg/mL (≈ 2.52 µM); in assay [11] it was 0.5 µg/mL (≈ 1.26 µM); in the assay with Escherichia coli [12], 64 µg/mL (≈ 161 µM). In addition, the MIC worked out at 0.125 µg/mL (≈ 0.315 µM) in assay [13]; 0.125 µg/mL (≈ 0.315 µM) in assay [14]; 0.06 µg/mL (≈ 0.151 µM) in assay [15]; 0.06 µg/mL (≈ 0.151 µM) in assay [16]; 1 µg/mL (≈ 2.52 µM) with Staphylococcus aureus [17]; 2 µg/mL (≈ 5.05 µM) against Enterococcus faecalis [18]. In addition, the MIC with Staphylococcus aureus [19] was 0.5 µg/mL (≈ 1.26 µM); in the assay on Staphylococcus aureus [20], 0.5 µg/mL (≈ 1.26 µM); against Staphylococcus aureus [21] it was 0.5 µg/mL (≈ 1.26 µM); in the assay with Escherichia coli [22] it was 64 µg/mL (≈ 161 µM); in assay [23], 0.06 µg/mL (≈ 0.151 µM).

With `CO/N=C(\C(=O)N[C@@H]1C(=O)N2C(C(=O)[O-])=CCS[C@H]12)c1csc(N)n1.[Na+]` [CEFTIZOXIME SODIUM], the MIC against Enterococcus faecalis [1] is greater than 128 µg/mL; in assay [2] it was 128 µg/mL; with Staphylococcus aureus [3], 64 µg/mL; against Staphylococcus aureus [4], 2 µg/mL; against Escherichia coli [5] it was 1 µg/mL; in the assay on Staphylococcus aureus [6] it was 4 µg/mL. The MIC was greater than 128 µg/mL against Enterococcus faecalis [7]; greater than 128 µg/mL with Enterococcus faecalis [8]; 4 µg/mL in the assay on Escherichia coli [9]; 128 µg/mL against Staphylococcus aureus [10]; 64 µg/mL in [11]; 4 µg/mL against Escherichia coli [12]. Moreover, the MIC was 128 µg/mL in [13]; 32 µg/mL in assay [14]; 32 µg/mL in [15]; 128 µg/mL against Staphylococcus aureus [17]; greater than 128 µg/mL in the assay with Enterococcus faecalis [18]; 4 µg/mL in the assay with Staphylococcus aureus [19]. The MIC in the assay with Staphylococcus aureus [20] was 4 µg/mL; with Staphylococcus aureus [21], 64 µg/mL; in the assay on Escherichia coli [22] it was 32 µg/mL; in assay [23], greater than 128 µg/mL.

As to `C[C@H]1COc2c(N3CCN(C)CC3)c(F)cc3c(=O)c(C(=O)O)cn1c23.C[C@H]1COc2c(N3CCN(C)CC3)c(F)cc3c(=O)c(C(=O)O)cn1c23.O` [LEVOFLOXACIN], the MIC in the assay with Enterococcus faecalis [1] was 4 µg/mL; in [2], 16 µg/mL; in the assay on Staphylococcus aureus [3] it was greater than 128 µg/mL; against Staphylococcus aureus [4], 16 µg/mL; in the assay with Escherichia coli [5], 32 µg/mL; with Staphylococcus aureus [6], 16 µg/mL. For the same compound, the MIC is 2 µg/mL with Enterococcus faecalis [7]; 2 µg/mL in the assay on Enterococcus faecalis [8]; greater than 128 µg/mL in the assay with Staphylococcus aureus [10]; 0.5 µg/mL in [11]; 16 µg/mL in assay [13]; 16 µg/mL in [14]. The MIC in assay [15] was found to be 0.5 µg/mL; in assay [16], 16 µg/mL; with Staphylococcus aureus [17] it was 128 µg/mL; in the assay on Enterococcus faecalis [18], 2 µg/mL; against Staphylococcus aureus [19], 0.5 µg/mL; with Staphylococcus aureus [20], 32 µg/mL. For the same compound, the MIC against Staphylococcus aureus [21] is greater than 128 µg/mL; in the assay on Escherichia coli [22], 64 µg/mL; in assay [23] it was 0.5 µg/mL.

Take `CO[C@H]1/C=C/O[C@@]2(C)Oc3c(C)c(O)c4c(O)c(c(/C=N/N5CCN(C)CC5)c(O)c4c3C2=O)NC(=O)/C(C)=C\C=C\[C@H](C)[C@H](O)[C@@H](C)[C@@H](O)[C@@H](C)[C@H](OC(C)=O)[C@@H]1C` [RIFAMPIN]: the MIC in the assay on Enterococcus faecalis [1] is 2 µg/mL (≈ 2.43 µM); in the assay with Staphylococcus aureus [3], greater than 128 µg/mL; with Staphylococcus aureus [4] it was less than 0.008 µg/mL; against Escherichia coli [5], 2 µg/mL (≈ 2.43 µM); with Staphylococcus aureus [6] it was less than 0.008 µg/mL; against Enterococcus faecalis [7] it was 4 µg/mL (≈ 4.86 µM). Also, the MIC in the assay on Enterococcus faecalis [8] is 1 µg/mL (≈ 1.22 µM); in the assay on Escherichia coli [9], 2 µg/mL (≈ 2.43 µM); in the assay on Staphylococcus aureus [10] it was greater than 128 µg/mL; in [11], less than 0.008 µg/mL; against Escherichia coli [12] it was 2 µg/mL (≈ 2.43 µM); in assay [14], less than 0.008 µg/mL. For the same compound, the MIC in assay [15] was less than 0.008 µg/mL; in assay [16], 0.008 µg/mL (≈ 0.00972 µM); against Staphylococcus aureus [17], greater than 128 µg/mL; in the assay on Enterococcus faecalis [18] it was 2 µg/mL (≈ 2.43 µM); against Staphylococcus aureus [19], 0.008 µg/mL (≈ 0.00972 µM); against Staphylococcus aureus [20] it was 0.008 µg/mL (≈ 0.00972 µM). The values for the MIC (in the assay with Staphylococcus aureus [21]; in the assay with Escherichia coli [22]; in assay [23]) were greater than 128 µg/mL, 2 µg/mL (≈ 2.43 µM) and 0.008 µg/mL (≈ 0.00972 µM), respectively.
